Source: ChEMBL document CHEMBL6103560, “MoA Studies of the TEAD P-Site Binding Ligand MSC-4106 and Its Optimization to TEAD1-Selective Amide M3686” (J Med Chem, 2025)
Active and inactive are the calls of the source. The calls are words filed in the database; no cut-off is given here.

Tests used:
[1] = Inhibition of CYR61 expression in human NCI-H226 cells incubated for 24 hrs by qPCR analysis; assay type: functional, cell-based; settings: NCI-H226, 24 h
[2] = target: Transcriptional enhancer factor TEF-5 (Homo sapiens) (UniProt Q99594); assay: Induction of thermal stabilization of His-TEV tagged human TEAD3 (216 to 435 residues) extracted from Escherichia coli BL21 star (DE3) cells assessed as change in melting temperature at 100 uM incubated for 2 hrs by nano-differential scanning fluorimetric analysis
[3] = Inhibition of TEAD(unknown origin)/YAP protein-protein interaction transfected in human SK-HEP1 cells incubated for 24 hrs by NanoLuc luciferase reporter assay; assay type: cell-based
[4] = target: Transcriptional enhancer factor TEF-4 (Homo sapiens) (UniProt Q15562); assay: Induction of thermal stabilization of human TEAD2 (217 to 447 residues) assessed as change in melting temperature at 100 uM incubated for 2 hrs by nano-differential scanning fluorimetric analysis
NCI-H226 [5] = assay: Downregulation of CTGF gene expression in human NCI-H226 cells incubated for 6 to 24 hrs by qPCR analysis; assay type: functional, cell-based; settings: time lower 6.0 hrs, time upper […]
[6] = target: Transcriptional enhancer factor TEF-3 (Homo sapiens) (UniProt Q15561); assay: Induction of thermal stabilization of His-Thrb-tagged human TEAD4 (217 to 434 residues) extracted from Escherichia coli BL21 star (DE3) cells assessed as change in melting temperature at 100 uM incubated for 2 hrs by nano-differential scanning fluorimetric analysis
[7] = Inhibition of CTGF expression in human NCI-H226 cells incubated for 24 hrs by qPCR analysis; assay type: functional, cell-based; settings: NCI-H226, 24 h
NCI-H226 [8] = assay: Downregulation of CYR61 gene expression in human NCI-H226 cells incubated for 6 to 24 hrs by qPCR analysis; assay type: functional, cell-based; settings: time lower 6.0 hrs, time upper […]
[9] = target: Transcriptional enhancer factor TEF-1 (Homo sapiens) (UniProt P28347); assay: Induction of thermal stabilization of GST-Pre3C-tagged human TEAD1 (209 to 426 residues) extracted from Escherichia coli BL21 star (DE3) cells assessed as change in melting temperature at 100 uM incubated for 2 hrs by nano-differential scanning fluorimetric analysis
MSTO-211H [10] = assay: Antiproliferative activity against YAP-dependent human MSTO-211H cells incubated for 4 days by CyQuant assay; assay type: functional, cell-based; settings: 96 h
MSTO-211H [11] = assay: Antiproliferative activity against YAP-dependent human MSTO-211H cells assessed as efficacy incubated for 4 days by CyQuant assay relative to control; assay type: functional; settings: time 4 day
NCI-H292 [12] = assay: Antiproliferative activity against YAP-dependent human NCI-H292 cells incubated for 4 days by CyQuant assay; assay type: functional, cell-based; settings: NCI-H292, 96 h
NCI-H292 [13] = assay: Antiproliferative activity against YAP-dependent human NCI-H292 cells assessed as efficacy incubated for 4 days by CyQuant assay relative to control; assay type: functional; settings: time 4 day
NCI-H226 [14] = assay: Antiproliferative activity against YAP-dependent human NCI-H226 cells incubated for 4 days by CellTiter-Glo 2.0 cell viability assay; assay type: functional, cell-based; settings: NCI-H226, 96 h
CAL-27 [15] = assay: Antiproliferative activity against YAP-dependent human CAL-27 cells incubated for 4 days by CyQuant assay; assay type: functional, cell-based; settings: CAL-27, 96 h
CAKI-2 = assay: Antiproliferative activity against YAP-dependent human CAKI-2 cells incubated for 4 days by CyQuant assay; assay type: functional, cell-based; settings: CAKI-2, 96 h
CAKI-1 [16] = assay: Antiproliferative activity against YAP-dependent human CAKI-1 cells assessed as efficacy incubated for 4 days by CyQuant assay relative to control; assay type: functional; settings: time 4 day
NCI-H226 [17] = assay: Antitumor activity against human NCI-H226 cells xenografted in female CEA BRG mouse model assessed as reduction in tumor volume administered orally once daily for 31 days; assay type: functional; settings: dose 3-30 mg/kg, route po, time 31.0 day
NCI-H226 [18] = assay: Antitumor activity against human NCI-H226 cells xenografted in female CEA BRG mouse model assessed as reduction in tumor volume at 15 mg/kg, po administered twice daily for 31 days; assay type: functional, organism-based; settings: time 31.0 day
RL95-2 [19] = assay: Antiproliferative activity against YAP-dependent human RL95-2 cells assessed as efficacy incubated for 4 days by CyQuant assay relative to control; assay type: functional; settings: time 4 day
Detroit 562 [20] = assay: Antiproliferative activity against YAP-dependent human Detroit 562 cells assessed as efficacy incubated for 4 days by CyQuant assay relative to control; assay type: functional; settings: time 4 day
CAL-27 [21] = assay: Antiproliferative activity against YAP-dependent human CAL-27 cells assessed as efficacy incubated for 4 days by CyQuant assay relative to control; assay type: functional; settings: time 4 day
SK-HEP1 [22] = assay: Antiproliferative activity against YAP-dependent human SK-HEP1 cells incubated for 4 days by CyQuant assay; assay type: functional, cell-based; settings: SK-HEP1, 96 h
RL95-2 [23] = assay: Antiproliferative activity against YAP-dependent human RL95-2 cells incubated for 4 days by CyQuant assay; assay type: functional, cell-based; settings: RL95-2, 96 h
NCI-H226 [24] = assay: Antitumor activity against human NCI-H226 cells xenografted in female CEA BRG mouse model assessed as reduction in tumor volume at 37.5 to 75 mg/kg, po administered once daily for 31 days; assay type: functional, organism-based; settings: dose 37.5-75 mg/kg, time 31.0 day
SK-HEP1 [25] = assay: Antiproliferative activity against YAP-dependent human SK-HEP1 cells assessed as efficacy incubated for 4 days by CyQuant assay relative to control; assay type: functional; settings: time 4 day
Detroit 562 [26] = assay: Antiproliferative activity against YAP-dependent human Detroit 562 cells incubated for 4 days by CyQuant assay; assay type: functional, cell-based; settings: Detroit 562, 96 h
NCI-H226 [27] = assay: Antiproliferative activity against YAP-dependent human NCI-H226 cells assessed as efficacy incubated for 4 days by CellTiter-Glo 2.0 cell viability assay relative to control; assay type: functional; settings: time 4 day
[28] = target: Transcriptional enhancer factor TEF-1 (Homo sapiens) (UniProt P28347); assay: Inhibition of P-FLAG-tagged TEAD1 palmitoylation (unknown origin) transfected in HEK293 cells at 0.001 to 10 uM incubated for 6 hrs by Western blot analysis; assay type: cell-based; settings: dose 0.001-10 µM
CAKI-1 [29] = assay: Antiproliferative activity against YAP-dependent human CAKI-1 cells incubated for 4 days by CyQuant assay; assay type: functional, cell-based; settings: CAKI-1, 96 h
[30] = target: Transcriptional enhancer factor TEF-3 (Homo sapiens) (UniProt Q15561); assay: Inhibition of P-FLAG-tagged TEAD4 palmitoylation (unknown origin) transfected in HEK293 cells at 0.1 to 10 uM incubated for 6 hrs by Western blot analysis; assay type: cell-based; settings: dose 0.1-10 µM
NCI-H226 [31] = assay: Disruption of TEAD1/TAZ protein-protein interaction in human NCI-H226 cells incubated for 6 hrs by co-immunoprecipitation analysis; assay type: cell-based; settings: dose 0.1-10 µmol/L
NCI-H226 [32] = assay: Disruption of TEAD4/YAP protein-protein interaction in human NCI-H226 cells incubated for 6 hrs by co-immunoprecipitation analysis; assay type: cell-based; settings: dose 0.1-10 µmol/L
NCI-H226 [33] = assay: Disruption of TEAD1/YAP protein-protein interaction in human NCI-H226 cells incubated for 6 hrs by co-immunoprecipitation analysis; assay type: cell-based; settings: dose 0.1-10 µmol/L
NCI-H226 [34] = assay: Disruption of TEAD4/TAZ protein-protein interaction in human NCI-H226 cells incubated for 6 hrs by co-immunoprecipitation analysis; assay type: cell-based; settings: dose 0.1-10 µmol/L
[35] = target: Transcriptional enhancer factor TEF-4 (Homo sapiens) (UniProt Q15562); assay: Inhibition of P-FLAG-tagged TEAD2 palmitoylation (unknown origin) transfected in HEK293 cells at 0.1 to 10 uM incubated for 6 hrs by Western blot analysis; assay type: cell-based; settings: dose 0.1-10 µM
[36] = target: Transcriptional enhancer factor TEF-1 (Homo sapiens) (UniProt P28347); assay: Inhibition of P-FLAG-tagged TEAD1 palmitoylation (unknown origin) transfected in HEK293 cells at 0.1 to 10 uM incubated for 6 hrs by Western blot analysis; assay type: cell-based; settings: dose 0.1-10 µM
[37] = target: Transcriptional enhancer factor TEF-5 (Homo sapiens) (UniProt Q99594); assay: Inhibition of P-FLAG-tagged TEAD3 palmitoylation (unknown origin) transfected in HEK293 cells at 0.1 to 10 uM incubated for 6 hrs by Western blot analysis; assay type: cell-based; settings: dose 0.1-10 µM

Sequence of Transcriptional enhancer factor TEF-1 (Homo sapiens) (P28347 whole entry, the tested form may be a part): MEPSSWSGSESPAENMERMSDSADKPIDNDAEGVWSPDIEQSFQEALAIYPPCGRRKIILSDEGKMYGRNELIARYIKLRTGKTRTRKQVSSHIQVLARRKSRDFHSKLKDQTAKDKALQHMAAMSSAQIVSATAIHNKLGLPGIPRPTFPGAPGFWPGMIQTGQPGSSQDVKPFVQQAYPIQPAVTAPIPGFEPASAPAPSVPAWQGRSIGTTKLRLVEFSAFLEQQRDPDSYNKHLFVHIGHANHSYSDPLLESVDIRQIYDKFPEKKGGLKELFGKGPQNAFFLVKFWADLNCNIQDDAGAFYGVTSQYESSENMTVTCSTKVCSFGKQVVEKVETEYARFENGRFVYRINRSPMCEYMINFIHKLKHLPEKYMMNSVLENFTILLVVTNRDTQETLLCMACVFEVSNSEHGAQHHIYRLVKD
Sequence of Transcriptional enhancer factor TEF-4 (Homo sapiens) (Q15562 whole entry, the tested form may be a part): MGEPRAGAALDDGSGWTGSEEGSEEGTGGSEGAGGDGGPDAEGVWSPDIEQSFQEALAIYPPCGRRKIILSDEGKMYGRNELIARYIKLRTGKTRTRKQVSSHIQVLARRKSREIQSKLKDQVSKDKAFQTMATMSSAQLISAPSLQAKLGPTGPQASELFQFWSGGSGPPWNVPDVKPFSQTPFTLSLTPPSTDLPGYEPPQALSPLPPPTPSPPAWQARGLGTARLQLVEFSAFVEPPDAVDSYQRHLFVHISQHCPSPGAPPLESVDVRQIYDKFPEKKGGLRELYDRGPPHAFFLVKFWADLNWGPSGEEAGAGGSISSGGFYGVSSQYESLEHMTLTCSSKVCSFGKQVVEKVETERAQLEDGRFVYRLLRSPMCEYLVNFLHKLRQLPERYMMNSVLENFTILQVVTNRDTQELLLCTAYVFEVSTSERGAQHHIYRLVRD
Sequence of Transcriptional enhancer factor TEF-3 (Homo sapiens) (Q15561 whole entry, the tested form may be a part): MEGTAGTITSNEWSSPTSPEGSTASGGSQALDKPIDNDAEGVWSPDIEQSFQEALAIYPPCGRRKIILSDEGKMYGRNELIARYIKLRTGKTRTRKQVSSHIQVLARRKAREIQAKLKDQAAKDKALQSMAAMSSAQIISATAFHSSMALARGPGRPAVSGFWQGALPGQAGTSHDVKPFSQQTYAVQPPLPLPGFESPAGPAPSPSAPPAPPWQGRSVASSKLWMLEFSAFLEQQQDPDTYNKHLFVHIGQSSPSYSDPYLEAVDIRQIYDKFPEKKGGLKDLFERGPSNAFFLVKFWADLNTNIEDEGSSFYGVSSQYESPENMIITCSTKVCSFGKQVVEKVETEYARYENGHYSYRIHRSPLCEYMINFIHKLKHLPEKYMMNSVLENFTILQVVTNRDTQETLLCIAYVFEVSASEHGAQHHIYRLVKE
Sequence of Transcriptional enhancer factor TEF-5 (Homo sapiens) (Q99594 whole entry, the tested form may be a part): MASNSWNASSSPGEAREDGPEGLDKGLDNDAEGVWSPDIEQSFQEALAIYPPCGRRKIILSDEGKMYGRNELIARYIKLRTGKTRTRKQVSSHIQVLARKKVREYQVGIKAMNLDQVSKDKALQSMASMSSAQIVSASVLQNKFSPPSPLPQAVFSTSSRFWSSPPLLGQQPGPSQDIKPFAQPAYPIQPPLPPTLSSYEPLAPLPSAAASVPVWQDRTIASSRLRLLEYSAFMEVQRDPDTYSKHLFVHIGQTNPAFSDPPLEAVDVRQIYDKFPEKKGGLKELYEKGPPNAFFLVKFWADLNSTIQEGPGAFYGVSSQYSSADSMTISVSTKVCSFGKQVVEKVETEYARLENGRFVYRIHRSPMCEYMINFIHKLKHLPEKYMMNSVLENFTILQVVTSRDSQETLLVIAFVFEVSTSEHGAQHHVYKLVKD

**Q.** For `Cc1snc2c1c1cc(C(=O)O)ccc1n2-c1ccc(C(F)(F)F)cc1`, which IC50 [1] is on record?
**A.** 13.2 nM

**Q.** What about the ΔTm [2] of the same compound?
**A.** 15 °C

**Q.** What about the IC50 [3] of the same compound?
**A.** 2 nM

**Q.** What about the ΔTm [4] of the same compound?
**A.** 11 °C

**Q.** What about the Activity (NCI-H226 [5]) of the same compound?
**A.** Active

**Q.** What about the ΔTm [6] of the same compound?
**A.** 13 °C

**Q.** And the IC50 [7]?
**A.** 19.4 nM

**Q.** And the Activity (NCI-H226 [8])?
**A.** Active

**Q.** And the ΔTm [9]?
**A.** 17 °C

**Q.** Which IC50 (MSTO-211H [10]) does the source give for `Cn1nc2c3cc(C(=O)N4CC[C@H](O)C4)ccc3n(-c3ccc(C(F)(F)F)cc3)c2n1` here?
**A.** 100 nM

**Q.** And the Efficacy (MSTO-211H [11])?
**A.** 51%

**Q.** What about the IC50 [1] of the same compound?
**A.** 122 nM

**Q.** And the IC50 (NCI-H292 [12])?
**A.** 300 nM

**Q.** And the Efficacy (NCI-H292 [13])?
**A.** 73%

**Q.** And the IC50 (NCI-H226 [14])?
**A.** 59 nM

**Q.** What about the IC50 [3] of the same compound?
**A.** 51 nM

**Q.** What about the IC50 (CAL-27 [15]) of the same compound?
**A.** 11000 nM

**Q.** And the IC50 (CAKI-2)?
**A.** > 30000 nM

**Q.** What about the Efficacy (CAKI-1 [16]) of the same compound?
**A.** 92%

**Q.** What about the Activity (NCI-H226 [17]) of the same compound?
**A.** Dose-dependent-effect

**Q.** What about the Activity (NCI-H226 [18]) of the same compound?
**A.** Active

**Q.** And the Activity (NCI-H226 [5])?
**A.** Active

**Q.** And the Efficacy (RL95-2 [19])?
**A.** 103%

**Q.** What about the Efficacy (Detroit 562 [20]) of the same compound?
**A.** 97%

**Q.** What about the Efficacy (CAL-27 [21]) of the same compound?
**A.** 102%

**Q.** What about the IC50 (SK-HEP1 [22]) of the same compound?
**A.** 11000 nM

**Q.** And the IC50 (RL95-2 [23])?
**A.** 9000 nM

**Q.** What about the Activity (NCI-H226 [24]) of the same compound?
**A.** Active

**Q.** What about the Efficacy (SK-HEP1 [25]) of the same compound?
**A.** 122%

**Q.** And the IC50 (Detroit 562 [26])?
**A.** 16000 nM

**Q.** And the IC50 [7]?
**A.** 122 nM

**Q.** What about the Efficacy (NCI-H226 [27]) of the same compound?
**A.** 98%

**Q.** What about the inhibition [28] of the same compound?
**A.** Active

**Q.** What about the Activity (NCI-H226 [8]) of the same compound?
**A.** Active

**Q.** And the IC50 (CAKI-1 [29])?
**A.** 5000 nM

**Q.** With `Cn1cc2c3cc(C(=O)O)ccc3n(-c3ccc(C(F)(F)F)cc3)c2n1` as the compound, how does the IC50 [1] read?
**A.** 7.6 nM

**Q.** And the IC50 [3]?
**A.** 4 nM

**Q.** And the Activity (NCI-H226 [5])?
**A.** Active

**Q.** And the IC50 [7]?
**A.** 3.1 nM

**Q.** And the Efficacy (NCI-H226 [27])?
**A.** 63%

**Q.** What about the Activity (NCI-H226 [8]) of the same compound?
**A.** Active

**Q.** With `Cc1snc2c1c1cc(C(=O)N[C@@H](CO)c3ccn(C)n3)ccc1n2-c1ccc(C(F)(F)F)cc1` as the compound, how does the inhibition [30] read?
**A.** Active

**Q.** And the Activity (NCI-H226 [31])?
**A.** Dose-dependent-effect

**Q.** And the IC50 (NCI-H226 [14])?
**A.** 21 nM

**Q.** What about the Activity (NCI-H226 [32]) of the same compound?
**A.** Dose-dependent-effect

**Q.** What about the Activity (NCI-H226 [33]) of the same compound?
**A.** Dose-dependent-effect

**Q.** And the IC50 [3]?
**A.** 16 nM

**Q.** What about the Activity (NCI-H226 [34]) of the same compound?
**A.** Dose-dependent-effect

**Q.** And the inhibition [35]?
**A.** Active

**Q.** And the inhibition [36]?
**A.** Active

**Q.** And the Efficacy (NCI-H226 [27])?
**A.** 103%

**Q.** What about the inhibition [37] of the same compound?
**A.** Active
